Values quoted from earlier work in paper PMC7435928, “Preclinical Evaluation of NHS-Activated Gold Nanoparticles Functionalized with Bombesin or Neurotensin-Like Peptides for Targeting Colon and Prostate Tumours” (Molecules, 2020).
pKd: −log10 of the molar value.

Biological target: bombesin BBRS1, BBRS2 and BBRS3 receptors
Set-up: method as in printed for the value
Details: target receptors BBRS1, BBRS2; not measured in this paper, ref not given; cited from earlier work

With `COc1ccc(C2(CNC(=O)[C@](C)(Cc3c[nH]c4ccccc34)NC(=O)Nc3ccc([N+](=O)[O-])cc3)CCCCC2)nc1` [PD 176252] as the compound, how does the pKd read?
Its pKd is 9.00.
